Assay results as given in ChEMBL document CHEMBL4673377 (Bioorg Med Chem Lett, 2021).
Active and inactive are the calls of the source. No cut-off for these calls is given here.

Key:
[1] = target: Kynurenine 3-monooxygenase (Mus musculus, UniProt Q91WN4)
Description: Inhibition of mouse liver mitochondrial KMO by measuring the 3-HK metabolite formation using L-kynurenine as substrate preincubated for 5 mins followed by substate addition and measured after 30 mins by LC-MS/MS analysis

[2] = Permeability of compound at pH 7.4 by PAMPA assay; format: ADME; details: read-out: permeability
[3] = Drug uptake in mouse brain at 10 mg/kg, po after 1 hr; format: ADME, organism-based; details: read-out: Drug uptake
[4] = Plasma concentration in mouse at 10 mg/kg, po after 1 hr; format: ADME, organism-based
in vivo = details: mouse, brain/plasma, po, 10 mg/kg
Description: Ratio of drug level in brain to plasma of mouse at 10 mg/kg, po after 1 hr

[5] = target: T1, Kynurenine 3-monooxygenase (Homo sapiens, UniProt O15229)
Target sequence in this assay (O15229 whole entry): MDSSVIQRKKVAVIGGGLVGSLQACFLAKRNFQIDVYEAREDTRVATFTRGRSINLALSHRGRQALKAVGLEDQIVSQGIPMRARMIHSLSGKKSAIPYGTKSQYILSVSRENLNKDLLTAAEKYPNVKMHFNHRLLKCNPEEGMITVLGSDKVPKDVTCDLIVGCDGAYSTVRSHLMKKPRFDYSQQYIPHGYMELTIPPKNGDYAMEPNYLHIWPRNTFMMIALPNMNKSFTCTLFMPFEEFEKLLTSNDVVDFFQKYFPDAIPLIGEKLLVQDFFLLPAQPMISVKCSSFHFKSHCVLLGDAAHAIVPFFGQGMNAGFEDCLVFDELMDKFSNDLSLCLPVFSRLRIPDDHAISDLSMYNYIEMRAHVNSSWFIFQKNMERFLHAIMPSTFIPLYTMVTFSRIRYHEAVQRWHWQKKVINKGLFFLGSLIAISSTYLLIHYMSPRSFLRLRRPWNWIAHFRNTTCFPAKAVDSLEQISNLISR
Description: Inhibition of KMO (unknown origin)

[6] = target: T1, Kynurenine 3-monooxygenase; test: Inhibition of human liver mitochondrial KMO at by measuring the 3-HK metabolite formation at 100 nM using L-kynurenine as substrate preincubated for 5 mins followed by substate addition and measured after 30 mins by LC-MS/MS analysis relative to control; details: Mitochondria, time 35.0 min
Target sequence in this assay (O15229 whole entry, looked up): as the sequence (O15229 whole entry) above

Mus musculus [7] = test: Effect on R6/2 mouse model of HD assessed as increase in latency to fall at 100 mg/kg, po administered twice daily for 11 weeks age starting from 5 weeks of age by rotarod test; format: functional, organism-based
Mus musculus [8] = test: Cognitive enhancing effect in R6/2 mouse model of HD assessed as increase in spontaneous alteration at 100 mg/kg, po administered twice daily for 12 weeks starting from 5 weeks of age by Y-maze test; format: functional, organism-based
Mus musculus [9] = test: In vivo inhibition of KMO in R6/2 mouse model of HD assessed as decrease in 3-HK level in striatum at 100 mg/kg, po administered twice daily for 7 weeks starting from 5 weeks age; format: functional, organism-based
[10] = target: Kynurenine 3-monooxygenase (Mus musculus) (UniProt Q91WN4); test: Inhibition of mouse liver mitochondrial KMO by measuring the 3-HK metabolite formation at 100 nM using L-kynurenine as substrate preincubated for 5 mins followed by substate addition and measured after 30 mins by LC-MS/MS analysis relative to control; details: Mitochondria, time 35.0 min
Sequence of Kynurenine 3-monooxygenase (Mus musculus) (Q91WN4 whole entry, looked up): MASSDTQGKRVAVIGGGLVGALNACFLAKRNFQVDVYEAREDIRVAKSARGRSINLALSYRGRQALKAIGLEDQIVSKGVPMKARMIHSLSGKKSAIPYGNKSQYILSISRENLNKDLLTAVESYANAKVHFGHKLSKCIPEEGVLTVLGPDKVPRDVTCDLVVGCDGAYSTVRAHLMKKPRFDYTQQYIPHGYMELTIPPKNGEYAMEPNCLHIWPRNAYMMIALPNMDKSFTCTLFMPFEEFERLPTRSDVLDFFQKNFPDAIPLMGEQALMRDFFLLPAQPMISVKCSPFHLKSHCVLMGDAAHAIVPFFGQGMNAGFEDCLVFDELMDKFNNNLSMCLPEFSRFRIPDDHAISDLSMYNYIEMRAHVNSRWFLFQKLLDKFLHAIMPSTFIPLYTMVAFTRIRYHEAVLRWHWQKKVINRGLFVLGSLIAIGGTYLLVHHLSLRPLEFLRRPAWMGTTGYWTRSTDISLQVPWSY

Sequence of Kynurenine 3-monooxygenase (Mus musculus, UniProt Q91WN4) (Q91WN4 whole entry): as the sequence (Q91WN4 whole entry, looked up) above

Row | Structure (SMILES) | IC50 [1] [nM] | Papp [2] [×10⁻⁶ cm/s] | concentration at 1 h [3] [ng/g] | concentration at 1 h [4] [ng/mL] | Kp at 1 h (in vivo) | other results
1 | O=C(O)C1CC1C(=O)c1ccc(Cl)c(Cl)c1 (centres undefined) |  |  |  |  |  | IC50 [5]: 40 nM
2 | Cc1ccc(S(=O)(=O)Nc2ccc(-c3ccccc3N3CCN(C)CC3)nn2)cc1 | > 100 |  |  |  |  | 
3 | COc1ccccc1-c1ccc(NS(=O)(=O)c2ccc(C)cc2)nn1 | 36.5 | 34.7 | 131 | 2520 | 0.052 | 
4 | Cc1cccc(S(=O)(=O)Nc2ccc(-c3cccc(Cl)c3)nn2)c1 | 101 | 40.2 |  |  |  | 
5 | Cc1ccc(S(=O)(=O)Nc2ccc(-c3ccc(N(C)C)cc3)nn2)cc1 | 546 |  |  |  |  | 
6 | Cc1ccc(S(=O)(=O)Nc2ccc(-c3ccccc3N3CCCCC3)nn2)cc1 |  | 50.6 | 230 | 808 | 0.282 | Activity (Mus musculus [7]): Active; Activity (Mus musculus [8]): Active; Activity (Mus musculus [9]): Active
7 | O=S(=O)(Nc1ccc(-c2cccc(Cl)c2)nn1)c1ccccn1 |  |  |  |  |  | inhibition [10]: 16%
8 | CN(C)c1ccccc1S(=O)(=O)Nc1ccc(-c2cccc(Cl)c2)nn1 | 118 | 35.7 |  |  |  | 
9 | CN(C)c1ccc(S(=O)(=O)Nc2ccc(-c3cccc(Cl)c3)nn2)cc1 | 402 |  |  |  |  | 
10 | Cc1ccc(S(=O)(=O)Nc2ccc(-c3cccc(N(C)C)c3)nn2)cc1 | 82.5 | 32.4 |  |  |  | 
11 | O=S(=O)(Nc1ccc(-c2cccc(Cl)c2)nn1)c1cccnc1 |  |  |  |  |  | inhibition [10]: 31%
12 | Cc1ccc(S(=O)(=O)Nc2ccc(-c3cccc4ccncc34)nn2)cc1 | 47.2 | 22.4 |  |  |  | 

More lines, in order of falling IC50 [1], values ahead:

Row | IC50 [1] [nM] | Papp [2] [×10⁻⁶ cm/s] | concentration at 1 h [3] [ng/g] | concentration at 1 h [4] [ng/mL] | Kp at 1 h (in vivo) | Structure (SMILES) | other results
13 | 31.7 | 42.5 |  |  |  | CN(C)c1cccc(S(=O)(=O)Nc2ccc(-c3cccc(Cl)c3)nn2)c1 | 
14 | 29.2 |  |  |  |  | CCc1ccccc1-c1ccc(NS(=O)(=O)c2ccc(C)cc2)nn1 | 
15 | 29.1 | 49.2 |  |  |  | Cc1ccc(S(=O)(=O)Nc2ccc(-c3cccc4ccn(C)c34)nn2)cc1 | 
16 | 16.9 | 38.5 |  |  |  | Cc1ccc(S(=O)(=O)Nc2ccc(-c3cccc4c3N(C)CC4)nn2)cc1 | 
17 | 8.7 | 44.1 | 2910 | 27900 | 0.104 | Cc1ccc(S(=O)(=O)Nc2ccc(-c3cccc4cccnc34)nn2)cc1 | inhibition [6]: 36%
18 | 8.7 | 6.5 | 177 | 49100 | 0.004 | O=C(O)c1cc(-c2ccc(Cl)c(OC3CC3)c2)ncn1 | 
19 | 4.5 | 35.7 | 25 | 185 | 0.136 | Cc1ccc(S(=O)(=O)Nc2ccc(-c3ccccc3N(C)C)nn2)cc1 | 
20 | 3.9 | 44.3 | 69 | 931 | 0.076 | Cc1ccc(S(=O)(=O)Nc2ccc(-c3ccccc3N3CCOCC3)nn2)cc1 | 
21 | 3.3 | 31.2 | 137 | 879 | 0.162 | CN(C)c1cccc(S(=O)(=O)Nc2ccc(-c3ccccc3N3CCCC3)nn2)c1 | 
22 | 1.7 | 43.5 | 51 | 215 | 0.235 | Cc1ccc(S(=O)(=O)Nc2ccc(-c3ccccc3N3CCCC3)nn2)cc1 | 
